Measured values taken from US4992530A, “Calcitonin-gene-related peptide derivatives” (Toyo Jozo Kabushiki Kaisha, priority 1987, dated 1991).
Ends that are not written are not given here. Peptide text beside a SMILES is read from it.

Tests used:
[1] = Serum calcium reducing activity in rats (atomic absorption spectrophotometry); format: in vivo; conditions: 80 μg/kg intravenously, Wistar rats; for prolongation of serum calcium reducing effect compared with h-CGRP / serum calcium reducing activity compared with h-CGRP: comparator h-CGRP; for serum calcium reducing activity compared with h-CGRP: same dose; for reduction of serum calcium concentration as compared with the control group: tail vein, vs dissolving medium group, FIG. 1
Protocol: (§1) Serum calcium and serum phosphate reducing activities: Assay method:
(§2) The peptide (1) of the present invention and known h-CGRP (each 80 μg) dissolved in citrate buffer, pH 6.5, containing 0.1% bovine serum albumin (hereinafter designated dissolving medium) (1 ml) were administered intravenously into the tail vein of Wistar rats, body weight 80-90 g, 5-6 rats in one group, at 80 μg/kg. After 30 and 60 mins. of administration, blood samples were collected from the abdominal descending aorta. The serum calcium concentration was measured by atomic adsorption spectrophotometry. Serum phosphate was measured by a method according to Goldenberg et al. [Clin. Chem., 12: 872-882 (1966)].

[2] = Serum phosphate reducing activity in rats (method of Goldenberg et al.); format: in vivo; conditions: 80 μg/kg intravenously, Wistar rats; for prolongation of serum phosphate reducing effect compared with h-CGRP / serum phosphate reducing activity compared with h-CGRP: comparator h-CGRP; for serum phosphate reducing activity compared with h-CGRP: same dose; for reduction of serum phosphate concentration as compared with the control group: tail vein, vs dissolving medium group, FIG. 2
Protocol: as §1, §2

## CC(C)C[C@H](NC(=O)[C@H](CCCNC(=N)N)NC(=O)[C@H](Cc1c[nH]cn1)NC(=O)[C@@H](NC(=O)[C@@H](NC(=O)[C@@H]1CSSC[C@H](NC(=O)[C@H](C)N)C(=O)N[C@@H](CC(N)=O)C(=O)N[C@@H]([C@@H](C)O)C(=O)N[C@@H](C)C(=O)N[C@@H]([C@@H](C)O)C(=O)N1)C(C)C)[C@@H](C)O)C(=O)N[C@@H](C)C(=O)N[C@@H](CC(=O)O)C(=O)N[C@@H](Cc1ccccc1)C(=O)N[C@@H](CC(C)C)C(=O)N[C@@H](CO)C(=O)N[C@@H](CCCNC(=N)N)C(=O)N[C@@H](CO)C(=O)NCC(=O)NCC(=O)N[C@H](C(=O)N[C@H](C(=O)N[C@@H](CCCCN)C(=O)N[C@@H](CC(N)=O)C(=O)N[C@@H](CC(N)=O)C(=O)N[C@@H](Cc1ccccc1)C(=O)N[C@H](C(=O)N1CCC[C@H]1C(=O)N[C@H](C(=O)N[C@@H](CC(N)=O)C(=O)N[C@H](C(=O)NCC(=O)N[C@@H](CO)C(=O)N[C@@H](CCCCN)C(=O)N[C@@H](C)C(=O)N[C@@H](Cc1ccccc1)C(N)=O)C(C)C)[C@@H](C)O)C(C)C)C(C)C)C(C)C [Asn^3,Asp^14,Phe^15] h-CGRP(1-37), [Asn^3,Asp^14,Phe^15] h-CGRP(1-37)] (HELM PEPTIDE1{A.C.N.T.A.T.C.V.T.H.R.L.A.D.F.L.S.R.S.G.G.V.V.K.N.N.F.V.P.T.N.V.G.S.K.A.F.[am]}$PEPTIDE1,PEPTIDE1,2:R3-7:R3$$$V2.0)
[1]
  duration of serum calcium reducing activity: more than 2 hours
  prolongation of serum calcium reducing effect compared with h-CGRP: prolonged significantly
  serum calcium reducing activity compared with h-CGRP: stronger than those of h-CGRP
  reduction of serum calcium concentration as compared with the control group: 20-30%
[2]
  duration of serum phosphate reducing activity: more than 2 hours
  prolongation of serum phosphate reducing effect compared with h-CGRP: prolonged significantly
  serum phosphate reducing activity compared with h-CGRP: stronger than those of h-CGRP
  reduction of serum phosphate concentration as compared with the control group: 20-30%

## CC(C)C[C@H](NC(=O)[C@H](CCCNC(=N)N)NC(=O)[C@H](Cc1c[nH]cn1)NC(=O)[C@@H](NC(=O)[C@@H](NC(=O)[C@@H]1CSSC[C@H](NC(=O)[C@H](C)N)C(=O)N[C@@H](CC(N)=O)C(=O)N[C@@H]([C@@H](C)O)C(=O)N[C@@H](C)C(=O)N[C@@H]([C@@H](C)O)C(=O)N1)C(C)C)[C@@H](C)O)C(=O)N[C@@H](C)C(=O)NCC(=O)N[C@@H](Cc1ccccc1)C(=O)N[C@@H](CC(C)C)C(=O)N[C@@H](CO)C(=O)N[C@@H](CCCNC(=N)N)C(=O)N[C@@H](CO)C(=O)NCC(=O)NCC(=O)N[C@H](C(=O)NCC(=O)N[C@@H](CCCCN)C(=O)N[C@@H](CC(N)=O)C(=O)N[C@@H](CC(N)=O)C(=O)N[C@@H](Cc1ccccc1)C(=O)N[C@H](C(=O)N1CCC[C@H]1C(=O)N[C@H](C(=O)N[C@@H](CC(N)=O)C(=O)N[C@H](C(=O)NCC(=O)N[C@@H](CO)C(=O)N[C@@H](CCCCN)C(=O)N[C@@H](C)C(=O)N[C@@H](Cc1ccccc1)C(N)=O)C(C)C)[C@@H](C)O)C(C)C)C(C)C [[Asn^3, Phe^15,Gly^23] h-CGRP(1-37), [Asn^3,Phe^15,Gly^23] h-CGRP(1-37)] (HELM PEPTIDE1{A.C.N.T.A.T.C.V.T.H.R.L.A.G.F.L.S.R.S.G.G.V.G.K.N.N.F.V.P.T.N.V.G.S.K.A.F.[am]}$PEPTIDE1,PEPTIDE1,2:R3-7:R3$$$V2.0)
[1]
  duration of serum calcium reducing activity: more than 2 hours
  prolongation of serum calcium reducing effect compared with h-CGRP: prolonged significantly
  serum calcium reducing activity compared with h-CGRP: stronger than those of h-CGRP
  reduction of serum calcium concentration as compared with the control group: 20-30%
[2]
  duration of serum phosphate reducing activity: more than 2 hours
  prolongation of serum phosphate reducing effect compared with h-CGRP: prolonged significantly
  serum phosphate reducing activity compared with h-CGRP: stronger than those of h-CGRP
  reduction of serum phosphate concentration as compared with the control group: 20-30%

## CC(C)C[C@H](NC(=O)[C@H](CCCNC(=N)N)NC(=O)[C@H](Cc1c[nH]cn1)NC(=O)[C@@H](NC(=O)[C@@H](NC(=O)[C@@H]1CSSC[C@H](NC(=O)[C@H](C)N)C(=O)N[C@@H](CC(N)=O)C(=O)N[C@@H]([C@@H](C)O)C(=O)N[C@@H](C)C(=O)N[C@@H]([C@@H](C)O)C(=O)N1)C(C)C)[C@@H](C)O)C(=O)N[C@@H](C)C(=O)N[C@@H](CC(=O)O)C(=O)N[C@@H](CC(C)C)C(=O)N[C@@H](CC(C)C)C(=O)N[C@@H](CO)C(=O)N[C@@H](CCCNC(=N)N)C(=O)N[C@@H](CO)C(=O)NCC(=O)NCC(=O)N[C@H](C(=O)NCC(=O)N[C@@H](CCCCN)C(=O)N[C@@H](CC(N)=O)C(=O)N[C@@H](CC(N)=O)C(=O)N[C@@H](Cc1ccccc1)C(=O)N[C@H](C(=O)N1CCC[C@H]1C(=O)N[C@H](C(=O)N[C@@H](CC(N)=O)C(=O)N[C@H](C(=O)NCC(=O)N[C@@H](CO)C(=O)N[C@@H](CCCCN)C(=O)N[C@@H](C)C(=O)N[C@@H](Cc1ccccc1)C(N)=O)C(C)C)[C@@H](C)O)C(C)C)C(C)C [[Asn^3,Asp^14,Gly^23] h-CGRP(1-37)] (HELM PEPTIDE1{A.C.N.T.A.T.C.V.T.H.R.L.A.D.L.L.S.R.S.G.G.V.G.K.N.N.F.V.P.T.N.V.G.S.K.A.F.[am]}$PEPTIDE1,PEPTIDE1,2:R3-7:R3$$$V2.0)
[1]
  duration of serum calcium reducing activity: more than 2 hours
  prolongation of serum calcium reducing effect compared with h-CGRP: prolonged significantly
  serum calcium reducing activity compared with h-CGRP: stronger than those of h-CGRP
  reduction of serum calcium concentration as compared with the control group: 20-30%
[2]
  duration of serum phosphate reducing activity: more than 2 hours
  prolongation of serum phosphate reducing effect compared with h-CGRP: prolonged significantly
  serum phosphate reducing activity compared with h-CGRP: stronger than those of h-CGRP
  reduction of serum phosphate concentration as compared with the control group: 20-30%

## [Asp^14 ] h-CGRP(1-37) (ACDTATCVTHRLADLLSRSGGVVKNNFVPTNVGSKAF; ends and bridges not checked; cysteine pairing not given here; UniProt P06881 83-119, looked up, variant G14D) [R = H--Ala--NH--, A = Asp, B = Asp, C = Leu, D = Val]
[1]
  duration of serum calcium reducing activity: more than 2 hours
  prolongation of serum calcium reducing effect compared with h-CGRP: prolonged significantly
  serum calcium reducing activity compared with h-CGRP: stronger than those of h-CGRP
  reduction of serum calcium concentration as compared with the control group: 20-30%
[2]
  duration of serum phosphate reducing activity: more than 2 hours
  prolongation of serum phosphate reducing effect compared with h-CGRP: prolonged significantly
  serum phosphate reducing activity compared with h-CGRP: stronger than those of h-CGRP
  reduction of serum phosphate concentration as compared with the control group: 20-30%

## desalanyl-deamino-[Asp^14 ] h-CGRP(2-37) [desalanyl-deamino-[Asp14] h-CGRP(2-37)]
[1]
  duration of serum calcium reducing activity: more than 2 hours
  prolongation of serum calcium reducing effect compared with h-CGRP: prolonged significantly
  serum calcium reducing activity compared with h-CGRP: stronger than those of h-CGRP
  reduction of serum calcium concentration as compared with the control group: 20-30%
[2]
  duration of serum phosphate reducing activity: more than 2 hours
  prolongation of serum phosphate reducing effect compared with h-CGRP: prolonged significantly
  serum phosphate reducing activity compared with h-CGRP: stronger than those of h-CGRP
  reduction of serum phosphate concentration as compared with the control group: 20-30%
